The source of these data is patent US20240398757A1 (COCRYSTAL PHARMA, INC., priority 2022, published 2024).

The test has as its target T1, SARS2 protease (Severe acute respiratory syndrome coronavirus 2, UniProt P0DTD1).
T1 construct: SARS2 protease was added to a final concentration of 30 nM
Briefly: SARS-CoV-2 protease inhibition assay (SARS2 FRET protease assay). As to conditions: IC50 (μM), SARS2 protease 30 nM, peptide substrate 1.3 μM, 120 minutes at 37° C., compounds 20 μM to 0.075 nM. It counts as biochemical.

Compound `CC(C)C[C@H](NC(=O)O[C@@H](C(C)C)C(F)(F)c1cccc(-c2ccccc2)c1)C(=O)N[C@@H](C[C@@H]1CCNC1=O)C(=O)C(=O)NC1CC1` [Compound A226, 1-([1,1′-biphenyl]-3-yl)-1,1-difluoro-3-methylbutan-2-yl ((S)-1-(((S)-4-(cyclopropylamino)-3,4-dioxo-1-((S)-2-oxopyrrolidin-3-yl)butan-2-yl)amino)-4-methyl-1-oxopentan-2-yl)carbamate] had an IC50 of 0.062 µM.

`O=C(N[C@@H](CCC(F)F)C(=O)N[C@@H](C[C@@H]1CCNC1=O)C(=O)C(=O)NC1CC1)O[C@@H](c1ccccc1)C(F)(F)c1cccc(Cl)c1` [Compound A227, (S)-2-(3-chlorophenyl)-2,2-difluoro-1-phenylethyl ((S)-1-(((S)-4-(cyclopropylamino)-3,4-dioxo-1-((S)-2-oxopyrrolidin-3-yl)butan-2-yl)amino)-5,5-difluoro-1-oxopentan-2-yl)carbamate] yielded an IC50 of 0.412 µM. Take `CCC(=O)OC([C@H](C[C@@H]1CCNC1=O)NC(=O)[C@H](CC1CCCCC1)NC(=O)O[C@@H](c1ccccc1)C(F)(F)c1cccc(Cl)c1)S(=O)(=O)O` (stereo partly drawn) [Compound A229, sodium (2S,6S,9S)-1-(3-chlorophenyl)-6-(cyclohexylmethyl)-1,1-difluoro-4,7,12-trioxo-9-(((S)-2-oxopyrrolidin-3-yl)methyl)-2-phenyl-3,11-dioxa-5,8-diazatetradecane-10-sulfonate]: the IC50 was ≥ 20 µM. For the compound `O=C(N[C@@H](CC(F)F)C(=O)N[C@@H](C[C@@H]1CCNC1=O)C(=O)C(=O)NC1CC1)OC(c1ccccc1)C(F)(F)c1cccc(Cl)c1` (stereo partly drawn) [Compound A230, 2-(3-chlorophenyl)-2,2-difluoro-1-phenylethyl ((S)-1-(((S)-4-(cyclopropylamino)-3,4-dioxo-1-((S)-2-oxopyrrolidin-3-yl)butan-2-yl)amino)-4,4-difluoro-1-oxobutan-2-yl)carbamate], the IC50 was 0.007 µM.

`CCCC[C@H](NC(=O)OC(c1ccccc1)C(F)(F)c1cccc(Cl)c1)C(=O)N[C@@H](C[C@@H]1CCNC1=O)C(=O)C(=O)NCCO` (stereo partly drawn) [Compound A231, 2-(3-chlorophenyl)-2,2-difluoro-1-phenylethyl ((S)-1-(((S)-4-((2-hydroxyethyl)amino)-3,4-dioxo-1-((S)-2-oxopyrrolidin-3-yl)butan-2-yl)amino)-1-oxohexan-2-yl)carbamate]: the IC50 was 0.089 µM. `O=C[C@H](C[C@@H]1CCNC1=O)NC(=O)[C@H](CC(F)F)NC(=O)OC(c1ccccc1)C(F)(F)c1cccc(Cl)c1` (stereo partly drawn) [Compound A232, 2-(3-chlorophenyl)-2,2-difluoro-1-phenylethyl ((S)-4,4-difluoro-1-oxo-1-(((S)-1-oxo-3-((S)-2-oxopyrrolidin-3-yl)propan-2-yl)amino)butan-2-yl)carbamate] gave a half-maximal inhibitory concentration (IC50) of 0.022 µM.

With `O=C(N[C@@H](CC1CCCCC1)C(=O)N[C@@H](C[C@@H]1CCNC1=O)C(O)S(=O)(=O)O)O[C@H](c1ccccc1)C(F)(F)c1cccc(F)c1` (stereo partly drawn) [Compound A233, sodium (2S)-2-((S)-3-cyclohexyl-2-((((R)-2,2-difluoro-2-(3-fluorophenyl)-1-phenylethoxy)carbonyl)amino)propanamido)-1-hydroxy-3-((S)-2-oxopyrrolidin-3-yl)propane-1-sulfonate], the IC50 was 0.025 µM. To `CCC(C)C[C@H](NC(=O)OC(c1ccccc1)C(F)(F)c1cccc(Cl)c1)C(=O)N[C@H](C=O)C[C@@H]1CCNC1=O` (stereo partly shown) [Compound A234] belongs 0.001 µM. In the case of `O=C(N[C@@H](CC1CCCCC1)C(=O)N[C@@H](C[C@@H]1CCNC1=O)C(=O)C(=O)NC1CC1)O[C@@H](c1ccccc1)C(F)(F)c1cccc(F)c1` [Compound A236] it was 0.817 µM; in that of `O=C(N[C@@H](CC1CCCCC1)C(=O)N[C@@H](C[C@@H]1CCNC1=O)C(=O)C(=O)NC1CC1)O[C@H](c1ccccc1)C(F)(F)c1cccc(F)c1` [Compound A237], 0.003 µM. In the case of `CCCC[C@H](NC(=O)OC(c1ccccc1)C(F)(F)c1cccc(Cl)c1)C(=O)N[C@@H](C[C@@H]1CCNC1=O)C(=O)c1nc2ccccc2s1` (stereo partly drawn) [Compound A238, 2-(3-chlorophenyl)-2,2-difluoro-1-phenylethyl ((S)-1-(((S)-1-(benzo[d]thiazol-2-yl)-1-oxo-3-((S)-2-oxopyrrolidin-3-yl)propan-2-yl)amino)-1-oxohexan-2-yl)carbamate] it was 1.16 µM. Take `CCNC(=O)C(=O)[C@H](C[C@@H]1CCNC1=O)NC(=O)[C@H](Cc1ccccc1)NC(=O)OC(c1ccccc1)C(F)(F)c1cccc(Cl)c1` (stereo partly drawn) [Compound A240, 2-(3-chlorophenyl)-2,2-difluoro-1-phenylethyl ((S)-1-(((S)-4-(ethylamino)-3,4-dioxo-1-((S)-2-oxopyrrolidin-3-yl)butan-2-yl)amino)-1-oxo-3-phenylpropan-2-yl)carbamate]: the IC50 came out at 0.638 µM.

Consider `O=C(N[C@@H](Cc1ccccc1)C(=O)N[C@@H](C[C@@H]1CCNC1=O)C(=O)C(=O)NC1CC1)OC(c1ccccc1)C(F)(F)c1cccc(Cl)c1` (stereo partly drawn) [Compound A241, 2-(3-chlorophenyl)-2,2-difluoro-1-phenylethyl ((S)-1-(((S)-4-(cyclopropylamino)-3,4-dioxo-1-((S)-2-oxopyrrolidin-3-yl)butan-2-yl)amino)-1-oxo-3-phenylpropan-2-yl)carbamate], for which 0.614 µM corresponded to half-maximal inhibition (IC50). In the case of `CCCC(=O)OC([C@H](C[C@@H]1CCNC1=O)NC(=O)[C@H](CC1CCCCC1)NC(=O)O[C@@H](c1ccccc1)C(F)(F)c1cccc(Cl)c1)S(=O)(=O)O` (stereo partly drawn) [Compound A242, sodium (2S,6S,9S)-1-(3-chlorophenyl)-6-(cyclohexylmethyl)-1,1-difluoro-4,7,12-trioxo-9-(((S)-2-oxopyrrolidin-3-yl)methyl)-2-phenyl-3,11-dioxa-5,8-diazapentadecane-10-sulfonate], the half-maximal inhibitory concentration (IC50) worked out at 1.2 µM. In the case of `CCCC[C@H](NC(=O)O[C@H](c1ccccc1)C(F)(F)c1cccc(Cl)c1)C(=O)N[C@@H](C[C@@H]1CCNC1=O)C(=O)C(N)=O` [Compound A248, (R)-2-(3-chlorophenyl)-2,2-difluoro-1-phenylethyl ((S)-1-(((S)-4-amino-3,4-dioxo-1-((S)-2-oxopyrrolidin-3-yl)butan-2-yl)amino)-1-oxohexan-2-yl)carbamate] it was 0.0004 µM; in that of `CCCC[C@H](NC(=O)OC(c1ccccc1)C(F)(F)c1cccc(Cl)c1)C(=O)N[C@@H](C[C@@H]1CCNC1=O)C(=O)C(=O)O` (stereo partly drawn) [Compound A250, (3S)-3-((2S)-2-(((2-(3-chlorophenyl)-2,2-difluoro-1-phenylethoxy)carbonyl)amino)hexanamido)-2-oxo-4-((S)-2-oxopyrrolidin-3-yl)butanoic acid], 0.036 µM.

Regarding `CCCC[C@H](NC(=O)OC(c1cccnc1)C(F)(F)c1cccc(Cl)c1)C(=O)N[C@@H](C[C@@H]1CCNC1=O)C(=O)C(=O)NC1CC1` (stereo partly shown) [Compound A252], the concentration for half-maximal inhibition (IC50) was 0.002 µM. The compound `O=C[C@H](C[C@@H]1CCNC1=O)NC(=O)[C@H](Cc1ccccc1)NC(=O)O[C@@H](c1ccccc1)C(F)(F)c1cccc(Cl)c1` [Compound A253, (S)-2-(3-chlorophenyl)-2,2-difluoro-1-phenylethyl ((S)-1-oxo-1-(((S)-1-oxo-3-((S)-2-oxopyrrolidin-3-yl)propan-2-yl)amino)-3-phenylpropan-2-yl)carbamate] had an IC50 of 0.002 µM. As to `O=C[C@H](C[C@@H]1CCNC1=O)NC(=O)[C@H](Cc1ccccc1)NC(=O)OC(C1CCCCC1)C(F)(F)c1cccc(Cl)c1` (stereo partly shown) [Compound A254], the IC50 was found to be 0.002 µM.
